Measured values as given in US20120070377A1, “COMPOUNDS AND BIOLOGICAL MATERIALS AND USES THEREOF” (priority 2009, published 2012).

Tests used:
KB = assay: In vitro phototoxicity (MTS cell titre assay after 670 nm laser light), Example 5; format: cell-based, human; conditions: Homo sapiens, KB; free photosensitisers; 2 hrs incubation, 670 nm laser 0.5 W 10 s, MTS after 48 h
Procedure: (§1) Two different human-derived tumour cell lines: SKOV3 and KB were obtained from the European Collection of Cell Cultures (ECACC) and cultured in Dulbecco's modified Eagle's medium (DMEM) with 10% foetal bovine serum, penicillin and streptomycin antibiotics (1%) and passaged when 70-90% confluent in 75 cm^2 flasks. The cells were maintained at 37° C. in a humidified 5% CO2 atmosphere.
(§2) Cells were trypsinised and seeded at 2×10^3 cells/well for KB and 3×10^3 cells/well for SKOV3 into 96-well plates and incubated over two nights for KB and overnight for SKOV3 at 37° C. and 5% CO2. The cells were then washed once in phenol red free DMEM and appropriately diluted photosensitiser solution or photo-immunoconjugate (in DMEM, 2% DMSO) was added to the appropriate wells under subdued lighting. DMEM or Triton X-100 (1%) were added to control wells. After 2 hrs incubation in the dark at 37° C., 5% CO2, cells were washed three times with PBS and 100 μl of DMEM was added to each well.
(§3) Wells were exposed to light from a High Powered-Devices 670 nm laser used at 0.5 W for 10 s. Controls included wells with photosensitiser added and no exposure to light, or DMEM added and exposure to light as well as Triton X-100 (1%) with or without light exposure. Cells that had no photosensitiser added and no exposure to light were included as overall controls. Cells were incubated in the dark at 37° C., 5% CO2 for 48 h after which time, a cell titre assay was performed according to the manufacturer's instructions. The Promega Cell Titre-96 system was used which involves the conversion by live cells of a tetrazolium compound (MTS) into a formazan dye which is measurable by its absorbance at 490 nm.

SKOV3 = assay: as above; format: cell-based, human; conditions: Homo sapiens, SK-OV-3; free photosensitisers; 2 hrs incubation, 670 nm laser 0.5 W 10 s, MTS after 48 h
Procedure: as §1, §2, §3

SKOV3 tumour = assay: Tumour uptake and tumour:blood ratio of radiolabelled photosensitisers and PICs; format: in vivo, BALB/c nude mice; conditions: mouse, in vivo
Procedure: Female BALB/c nude mice (aged 6-8 weeks old) were implanted with 10^7 SKOV3 tumour cells mixed in 0.1 ml of ice-cold matrigel subcutaneously and the tumours were allowed to grow for 3-6 weeks as xenografts. Mice were maintained in IVC cages (individually-vented cages) in a clean room. Samples were injected in a volume of 0.1 ml, intravenously via the lateral tail vein and the mice were maintained in low light with full food and water (irradiated). At various time points (1-24 hr), mice were culled by cardiac puncture under terminal anesthesia and blood and tissues collected. All the tissues were counted for radioactivity by gamma counting and weighed.
The PS (PPa and PPa-PEG) were chemically coupled to C6 scFv, radiolabelled with iodogen as before, but dialysed against 3×5 L of PBS to remove the free iodine and injected into BALB/c nude mice with SKOV3 tumours as above. Tissues were dissected and counted as above.
The tumours were counted for radioactivity and expressed as % of the injected dose/g of tumour tissue (FIG. 10).
The percentage PS in the tumour was divided by the percentage in the blood (gram for gram) to give a targeting or tumour:blood ratio (the higher the better). This plotted in FIG. 11. A high tumour:blood ratio means that there is more in the tumour compared to the blood (and other tissues). This is a function of tumour uptake and blood clearance (see FIGS. 9 and 10).

[1] = Skin photosensitivity in a murine model; format: in vivo; conditions: laser on the skin after 1 hour, monitored over 4 days, scale of 1-4
Procedure: FIG. 24: Skin photosensitivity of Foscan compared to compound II. Photosensitisers were administered at t=0 hrs and a laser shone on the skin after 1 hour. The skin reaction was followed over time and the results were plotted according to the scale shown.
Skin photosensitivity is an important issue to be resolved in PDT. […] In a murine model, Foscan was administered at clinical doses (ref 109) and compared to compound 11 and a photo-immunoconjugate of compound 11. Skin photosensitivity was monitored over 4 days by observation according to a scale of 1-4 (FIG. 24).

- skin photosensitivity [1]: little or no skin sensitivity
SMILES: CCC1=C(C)c2cc3[nH]c(c(C)c3CC)c(C#CCCCC(=O)ON3C(=O)CCC3=O)c3nc(c4c5[nH]c(cc1n2)c(C)c5C(=O)C4)[C@@H](CCC(=O)OCc1cc(OCCOCCOCCOC)c(OCCOCCOCCOC)c(OCCOCCOCCOC)c1)[C@@H]3C [compound 11, Meso 5-Ethynylhexanoyl succinimido ester pyropheophorbide a-3,4,5-(triethylene glycolmonomethylether) benzyl ester]
- IC50 (KB): 1.2 ± 0.5 µM
- IC50 (SKOV3): 1.1 µM
- tumour accumulation relative to the level of PPa (SKOV3 tumour): about ⅓
